In PubChem BioAssay (NCI):
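Test compounds were applied to cells in 96-well plates for 48 hours at 5 doses. Abbreviation: GI50, concentration required for 50% inhibition of growth. At the TGI there is no net growth.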

Experiments:
Assay in all cases: inhibition of tumour cell growth, NCI panel, 48 h
ACHN renal = tested on: ACHN renal
CAKI-1 renal = tested on: CAKI-1 renal
MOLT-4 leukemia = tested on: MOLT-4 leukemia
NCI-H23 lung = tested on: NCI-H23 lung
PC-3 prostate = tested on: PC-3 prostate
RXF 393 renal = tested on: RXF 393 renal
SF-295 CNS = tested on: SF-295 CNS
SNB-19 CNS = tested on: SNB-19 CNS
SW-620 colon = tested on: SW-620 colon
UO-31 renal = tested on: UO-31 renal

Row | Compound | GI50 (ACHN renal) [µM] | TGI (ACHN renal) [µM] | GI50 (CAKI-1 renal) [µM] | TGI (CAKI-1 renal) [µM] | GI50 (MOLT-4 leukemia) [µM] | TGI (MOLT-4 leukemia) [µM] | GI50 (NCI-H23 lung) [µM] | TGI (NCI-H23 lung) [µM] | GI50 (PC-3 prostate) [µM] | TGI (PC-3 prostate) [µM] | GI50 (RXF 393 renal) [µM] | TGI (RXF 393 renal) [µM] | GI50 (SF-295 CNS) [µM] | TGI (SF-295 CNS) [µM] | GI50 (SNB-19 CNS) [µM] | TGI (SNB-19 CNS) [µM] | GI50 (SW-620 colon) [µM] | TGI (SW-620 colon) [µM] | GI50 (UO-31 renal) [µM] | TGI (UO-31 renal) [µM]
1 | COc1ccc2cc(-c3c(-c4ccncc4)nc(-c4ccc(S(C)=O)cc4)n3C)ccc2c1 (stereo not given) | 20.2 | > 25 | 19.4 | > 25 | 17.2 | > 25 | > 25 | > 25 | > 21.3 | > 25 | 2.78 | > 25 | > 22.4 | > 25 | > 20.8 | > 25 | > 25 | > 25 | 6.42 | > 25
2 | CN(C)c1ccc(N=Nc2ccncc2)cc1 | – | > 100 | – | > 100 | – | > 100 | – | > 100 | – | > 100 | – | > 100 | – | > 100 | – | > 100 | – | > 100 | – | > 100
3 | CC1(C)CCC[C@]2(C)[C@@H](C=O)C(C=O)=CC[C@@H]12 | – | 30.6 | – | 23.1 | – | 30.5 | – | 69.5 | – | > 100 | – | 34.6 | – | 75.1 | – | 77.4 | – | > 100 | – | 29.9
4 | Nc1ccccc1SCc1csc(-c2ccc(Cl)cc2)n1 | – | 73.2 | – | > 100 | – | 25 | – | > 84.6 | – | > 71.5 | – | 60.4 | – | > 100 | – | > 100 | – | > 100 | – | 46.6
5 | CC(=O)c1c(C(F)(F)F)n([O-])c2ccc(C)cc2[n+]1=O | 3.44 | 20.4 | 3.46 | 24.6 | 0.0504 | 5.2 | 2.08 | 11.2 | 1.34 | 14.1 | 10.2 | > 100 | 5.71 | > 44.2 | 6.03 | > 100 | 3.54 | > 100 | 4.39 | –
6 | N/N=C1\CC(=O)NC(=O)N1 | – | > 100 | – | > 100 | – | > 100 | – | > 100 | – | > 100 | – | > 100 | – | > 100 | – | > 100 | – | > 100 | – | > 100
7 | COc1ccc(OC)c(C2SCC(=O)N2NC(=O)C(O)c2ccccc2)c1 (stereo not given) | > 100 | > 100 | > 100 | > 100 | > 100 | > 100 | > 100 | > 100 | > 100 | > 100 | > 100 | > 100 | > 100 | > 100 | > 100 | > 100 | > 100 | > 100 | > 100 | > 100
8 | CN1CCC(n2cnc(-c3ccc(F)cc3)c2-c2ccnc(N)n2)CC1 | 5.71 | > 25 | 7.63 | > 24.1 | 12.6 | > 25 | 10.6 | > 25 | 9.28 | > 25 | 9.74 | > 25 | 9.36 | > 25 | 10.3 | > 25 | 5.93 | > 25 | 2.55 | 16.1
9 | CCOc1nc(N)nc(C)c1N=Nc1ccc(Cl)cc1 | – | > 100 | – | > 100 | – | > 100 | – | > 100 | – | > 100 | – | > 100 | – | 94.1 | – | > 100 | – | > 100 | – | > 100
10 | Cn1cc(-c2nonc2-c2cn(C)c3ccccc23)c2ccccc21 | 1.47 | > 100 | 0.653 | > 100 | 1.72 | > 100 | 1.98 | > 100 | 1.42 | > 100 | 0.827 | 21.9 | 0.42 | > 100 | 0.91 | > 100 | 0.425 | > 100 | 0.972 | > 100
11 | CCC1(O)C(=O)OCc2c1cc1n(c2=O)Cc2cc3cc(N)ccc3nc2-1 (stereo not given) | – | 0.0142 | – | 0.343 | – | < 0.01 | – | 0.0817 | – | > 100 | 0.126 | 1.12 | – | 0.36 | – | 3.36 | – | > 100 | – | 0.0864
12 | CN(CC(N)=O)C(=O)N(CCCl)N=O | – | > 100 | – | > 100 | – | > 100 | – | > 100 | – | > 100 | – | > 100 | – | > 100 | – | > 100 | – | > 100 | – | > 100
13 | O=C(Oc1cccnc1)c1ccsc1Nc1ccnc(C(F)(F)F)c1 | 17.7 | 95.8 | 3.82 | > 100 | 4.39 | 35 | 4.07 | > 100 | 9.24 | 73.2 | 6.26 | 34.8 | 24 | > 100 | 20.7 | > 100 | 4.09 | > 100 | 20.8 | > 100
14 | Nc1ccc(-c2nc3ccccc3[nH]2)c2ccccc12 | 8.41 | 41.3 | 2.23 | > 53.7 | 3.44 | > 100 | 3.24 | > 30.3 | 6.49 | > 100 | 1.83 | 12.2 | 1.56 | > 28.9 | 3.57 | > 100 | 1.4 | > 100 | 5.32 | > 82.8
15 | CC(C)(C)CN1CCn2c(nc3c(N)nccc32)S1 | 7.45 | > 100 | 25.3 | > 100 | 5.55 | 82 | 5.17 | 34 | 11 | > 100 | 15.7 | 64.5 | 12 | > 100 | 32.8 | > 100 | 4.16 | 30.1 | 37.1 | > 100
